Results as given in patent publication US4314028A, “Fermentation process for producing tallysomycin compounds” (priority 1980, dated 1982).
Like-named read-outs stand apart in the source and are kept apart here.

Legend:
[1] = tested on: Aspergillus fumigatus IAM 2593; test: MIC, two-fold agar dilution method; type: cell-based; conditions: Sabouraud agar
Summary of the method: (§1)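 MICs were determined by serial two-fold dilution in agar. The bacterial strains (S. aureus Smith, Mycobacterium 607, Sarcina lutea PCI1001) were grown on nutrient agar, and Aspergillus fumigatus IAM 2593 on Sabouraud agar.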

[2] = tested on: Bacillus subtilis PCI 219; test: MIC, two-fold agar dilution method; type: cell-based; conditions: nutrient agar
Summary of the method: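 Agar dilution (2-fold series) on nutrient agar (bacteria) or Sabouraud agar (fungi).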

[3] = tested on: Candida albicans IAM 4888; test: MIC, two-fold agar dilution method; type: cell-based; conditions: Sabouraud agar
Summary of the method: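 Compounds are diluted two-fold through agar plates: Sabouraud medium for the fungus, nutrient medium for the bacterial strains, including the acid-fast Mycobacterium 607. Organisms are then applied and the minimum inhibitory concentration is recorded.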

Escherichia coli NIHJ = test: MIC, two-fold agar dilution method; type: cell-based; conditions: nutrient agar
Summary of the method: (§2)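 Two-fold agar dilution; nutrient agar for bacteria, Sabouraud agar for A. fumigatus. MIC = lowest inhibitory concentration.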

Mycobacterium 607 = test: MIC, two-fold agar dilution method; type: cell-based; conditions: nutrient agar
Summary of the method: as §1

Proteus mirabilis A9554 = test: MIC, two-fold agar dilution method; type: cell-based; conditions: nutrient agar
Summary of the method: as §2

Sarcina lutea PCI1001 = test: MIC, two-fold agar dilution method; type: cell-based; conditions: nutrient agar
Summary of the method: as §1

[4] = tested on: Staphylococcus aureus Smith; test: MIC, two-fold agar dilution method; type: cell-based; conditions: nutrient agar
Summary of the method: as §1

[5] = tested on: Mycobacterium smegmatis strain M6-3; test: Relative antibacterial potency, paper-disc agar diffusion method; type: cell-based; conditions: relative to tallysomycin A standard=1000 mcg/mg
Method: The relative antibacterial potencies (tallysomycin A standard=1000 mcg/mg) of the tallysomycin derivatives were determined by the paper-disc agar diffusion method using Mycobacterium smegmatis strain M6-3 as the assay organism.

[6] = tested on: lysogenic bacterium E. coli W1709 (λ); test: Prophage induction of lysogenic bacterium (ILB activity); type: cell-based; conditions: t/c ratio of plaque counts greater than 3.0
Summary of the method: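 Plaques counted on agar plates containing test compound and on control plates, following Lein et al. A test/control plaque ratio above 3.0 counted as significant. Value given as the minimum inducible concentration.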

[7] = tested on: Lymphocytic leukemia P388; test: animal or person; type: in vivo, BDF1 mice; conditions: for Antitumor activity P388 (ED125): ip, once daily 9 days, dose giving T/C survival of 125%; for Antitumor activity P388 (ED125) / Antitumor therapeutic index P388: copper-chelated form unless otherwise stated; for Antitumor therapeutic index P388: single dose LD50/ED125
Summary of the method: (§3)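 P388 (3×10^5 cells) and Lewis lung (5×10^5) i.p. in BDF1 mice, B16 (5×10^5) s.c. in BDF1, Sarcoma 180 ([…]) i.p. in male dd mice. ED125 (Sarcoma 180 ED150) from median-survival T/C, 45 days; B16 ID50 from day-16 tumor size.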

Sarcoma 180 = test: animal or person; type: in vivo, dd-strain mice; conditions: for Antitumor activity S180 (ED150) / ED (T/C 150%): ip; for Antitumor therapeutic index S180: single dose LD50/ED150; for ED (T/C 150%): Mus musculus, 216 h, read-out: Antitumor activity S180 (ED150)
Summary of the method: as §3

Melanotic melanoma B16 = test: Antitumor activity in mice, melanotic melanoma B16; type: in vivo, BDF1 mice; conditions: copper-chelated form unless otherwise stated; for Antitumor activity B16 (ID50): ip, once daily 9 days, 50% inhibition of tumor growth, day 16, 23040 min; for Antitumor therapeutic index B16: single dose LD50/ID50
Summary of the method: as §3

Lewis lung carcinoma = test: Antitumor activity in mice, Lewis lung carcinoma; type: in vivo, BDF1 mice; conditions: for Antitumor activity Lewis lung (ED125): once daily 11 days, dose giving T/C survival of 125%; for Antitumor activity Lewis lung (ED125) / Antitumor therapeutic index Lewis Lung: copper-chelated form unless otherwise stated; for Antitumor therapeutic index Lewis Lung: single dose LD50/ED125
Source text: The antitumor activity of the tallysomycin derivatives was examined in four experimental tumor systems in mice. Lymphocytic leukemia P388 and Lewis lung carcinoma were implanted intraperitoneally into BDF1 mice of either sex at an inoculum size of 3×10^5 and 5×10^5 cells per mouse, respectively. Sarcoma 180 ascites tumor was inoculated intraperitoneally into male dd-strain mice with […] per mouse. Melanotic melanoma B16 was implanted subcutaneously into BDF1 mice with 5×10^5 cells per mouse. Twenty-four hours after the implantation of tumor cells, graded doses of test compounds were administered to mice intraperitoneally in an injection volume of 0.2 ml. per 10 grams of body weight. Test compounds were given once daily for 9 days (qd 1→9 schedule) except for the mice inoculated with Lewis lung carcinoma which were treated for 11 days (qd 1→11). Death or survival of the treated and non-treated (control) animals was recorded daily during the observation period of 45 days after the implantation of tumor cells, and the median survival time was calculated for each of the test (T) and control (C) groups. […] The actual dose giving a T/C of 125% was estimated by linear regression analysis and defined as the effective dose 125 or ED125. The effective dose 150 (ED150) was employed for the evaluation of antitumor effect against Sarcoma 180. In the B16 melanoma experiment the tumor size was measured on day 16 after tumor inoculation, and the dose giving 50% inhibition of tumor growth (ID50) was calculated from regression lines.
The antitumor therapeutic index was calculated for each derivative from the ratio of toxicity and antitumor activity.

[8] = Acute toxicity, single dose LD50; type: in vivo, dd mice; conditions: ip, 30 days observation, copper-chelated form unless otherwise stated
Method: (§4) Graded doses of test compounds were administered intraperitoneally to groups of dd mice. The injection was given one time only or once daily for 9 consecutive days. Death or survival of the animals was recorded for 30 days after the last dose of test compound to calculate the single or multiple median lethal dose (LD50).

[9] = Subacute toxicity, multiple dose LD50; type: in vivo, dd mice; conditions: ip, once daily 9 days, 30 days observation; copper-chelated form unless otherwise stated
Method: as §4

[10] = once daily 9 days, effective dose 150, survival, copper-chelated form unless otherwise stated
[11] = copper-chelated form unless otherwise stated

SMILES | minimum inhibitory concentration (MIC) [1] | minimum inhibitory concentration (MIC) [2] | minimum inhibitory concentration (MIC) [3] | minimum inhibitory concentration (MIC) (Escherichia coli NIHJ) | minimum inhibitory concentration (MIC) (Mycobacterium 607) | minimum inhibitory concentration (MIC) (Proteus mirabilis A9554) | minimum inhibitory concentration (MIC) (Sarcina lutea PCI1001) | minimum inhibitory concentration (MIC) [4] | Antibacterial potency [5] | ILB activity (minimum inducible concentration) [6] [µg/mL] | Antitumor activity P388 (ED125) [7] [mg/kg/day] | Antitumor therapeutic index P388 [7] | Antitumor activity S180 (ED150) (Sarcoma 180; [10]) [mg/kg/day] | Antitumor therapeutic index S180 (Sarcoma 180; [11]) | Antitumor activity B16 (ID50) (Melanotic melanoma B16) [mg/kg/day] | Antitumor therapeutic index B16 (Melanotic melanoma B16) | Antitumor activity Lewis lung (ED125) (Lewis lung carcinoma; ip) [mg/kg/day] | Antitumor therapeutic index Lewis Lung (Lewis lung carcinoma) | LD50 single dose [8] [mg/kg/day] | LD50 multiple dose (qd 1 → 9) [9] [mg/kg/day] | other results
Cc1c(N)nc(C(CC(N)=O)NCC(N)C(N)=O)nc1C(=O)NC(C(=O)NC(C)C(O)CC(=O)NC(C(=O)NC(OC1OC(C)C(N)C(O)C1O)C(O)c1nc(-c2nc(C(=O)NCCC[S+](C)C)cs2)cs1)C(C)O)C(OC1OC(CO)C(O)C(O)C1OC1OC(CO)C(O)C(OC(N)=O)C1O)c1cnc[nH]1.Cl.Cl.Cl.[Cl-] (stereo not shown) [Tallysomycin S2b] | 0.8 | < 0.05 | 25 | 0.4 | 0.2 | 1.6 | 6.3 | 1.6 | 300 μ/mg | 0.63 | 0.91 | 35 | 0.12 | 267 | 0.33 | 97 | 0.65 | 49 | 32 | 2.0 | 
Cc1c(N)nc(C(CC(N)=O)NCC(N)C(N)=O)nc1C(=O)NC(C(=O)NC(C)C(O)CC(=O)NC(C(=O)NC(OC1OC(C)C(N)C(O)C1O)C(O)c1nc(-c2nc(C(=O)NCCCNC(C)c3ccccc3)cs2)cs1)C(C)O)C(OC1OC(CO)C(O)C(O)C1OC1OC(CO)C(O)C(OC(N)=O)C1O)c1c[nH]cn1 (stereo not shown) [Tallysomycin S14b] | 25 | 0.4 | > 100 | 0.4 | 0.2 | 25 | 3.1 | 3.1 | 1,090 μ/mg | 0.04 | 3.0 |  | 0.08 |  | 0.43 |  | 0.29 |  |  | 16 | 
Cc1c(N)nc(C(CC(N)=O)NCC(N)C(N)=O)nc1C(=O)NC(C(=O)NC(C)C(O)CC(=O)NC(C(=O)NC(OC1OC(C)C(N)C(O)C1O)C(O)c1nc(-c2nc(C(=O)NCCCC(N)CC(=O)NCCCNCCCCN)cs2)cs1)C(C)O)C(OC1OC(CO)C(O)C(O)C1OC1OC(CO)C(O)C(OC(N)=O)C1O)c1c[nH]cn1 (stereo not shown) [Tallysomycin A (Cu-free), reference compound] |  |  |  |  |  |  |  |  |  |  | 0.26 |  |  |  |  |  | 0.13 |  | 19 | 4.4 | ED (T/C 150%) (Sarcoma 180; [10]): 0.07 mg/kg/day
Cc1c(N)nc(C(CC(N)=O)NCC(N)C(N)=O)nc1C(=O)NC(C(=O)NC(C)C(O)CC(=O)NC(C(=O)NC(OC1OC(C)C(N)C(O)C1O)C(O)c1nc(-c2nc(C(=O)NCCCNCCCCN)cs2)cs1)C(C)O)C(OC1OC(CO)C(O)C(O)C1OC1OC(CO)C(O)C(OC(N)=O)C1O)c1c[nH]cn1 (stereo not shown) [Tallysomycin B (Cu-free), reference compound] |  |  |  |  |  |  |  |  |  |  | 0.89 |  |  |  |  |  | 0.11 |  | 46 | 6.8 | ED (T/C 150%) (Sarcoma 180; [10]): 0.06 mg/kg/day
Cc1c(N)nc(C(CC(N)=O)NCC(N)C(N)=O)nc1C(=O)NC(C(=O)NC(C)C(O)CC(=O)NC(C(=O)NC(OC1OC(C)C(N)C(O)C1O)C(O)c1nc(-c2nc(C(=O)NCCCCN)cs2)cs1)C(C)O)C(OC1OC(CO)C(O)C(O)C1OC1OC(CO)C(O)C(OC(N)=O)C1O)c1c[nH]cn1 (stereo not shown) [Tallysomycin S10b (Cu-free)] |  |  |  |  |  |  |  |  |  |  |  |  |  |  |  |  |  |  | 42 | 4.0 | ED (T/C 125%) ([7]; Mus musculus, P388, ip, 216 h, read-out: Antitumor activity P388 (ED125)): 0.47 mg/kg/day; ED (T/C 150%) (Sarcoma 180): 0.02 mg/kg/day; ED (T/C 125%) (Lewis lung carcinoma; Mus musculus, Lewis lung carcinoma, ip, 264 h, read-out: Antitumor activity Lewis lung (ED125)): 0.21 mg/kg/day
Cc1c(N)nc(C(CC(N)=O)NCC(N)C(N)=O)nc1C(=O)NC(C(=O)NC(C)C(O)CC(=O)NC(C(=O)NC(OC1OC(C)C(N)C(O)C1O)C(O)c1nc(-c2nc(C(=O)NCCNCC(C)O)cs2)cs1)C(C)O)C(OC1OC(CO)C(O)C(O)C1OC1OC(CO)C(O)C(OC(N)=O)C1O)c1c[nH]cn1 (stereo not shown) [Tallysomycin S5b] | 0.4 | 0.025 | 25 | 0.4 | 0.2 | 3.1 | 12.5 | 6.3 | 500 μ/mg | 0.08 | 0.66 | 70 | 0.10 | 460 | 0.31 | 148 | 0.38 | 121 | 46 | 4.0 | 
